ChEMBL document CHEMBL5260848, “Recent advancements in the development of bioactive pyrazoline derivatives” (Eur J Med Chem, 2020)
Values after ≈ are worked out from the molar mass of the structure shown.

How the values were obtained:
[1] = test system: Escherichia coli; test: Antibacterial activity against Escherichia coli incubated for 24 hrs by disc diffusion method; format: functional
[2] = test system: Aspergillus niger; test: Antifungal activity against Aspergillus niger incubated for 24 hrs by disc diffusion method; format: functional
[3] = test system: Pseudomonas aeruginosa; test: microbe, parasite or virus in culture; details: 24 h
[4] = test system: Staphylococcus aureus; test: microbe, parasite or virus in culture; details: 24 h
[5] = test system: Bacillus subtilis; test: microbe, parasite or virus in culture; details: 24 h
[6] = test system: Aspergillus fumigatus; test: Antifungal activity against Aspergillus fumigatus incubated for 24 hrs by disc diffusion method; format: functional
[7] = test system: Aspergillus flavus; test: Antifungal activity against Aspergillus flavus incubated for 24 hrs by disc diffusion method; format: functional
[8] = test system: Candida albicans; test: microbe, parasite or virus in culture; details: 24 h
[9] = test system: Mycobacterium tuberculosis; test: microbe, parasite or virus in culture; details: 120 h
[10] = biological target: T1, Amine oxidase [flavin-containing] A (Homo sapiens, UniProt P21397)
T1 sequence (P21397 whole entry): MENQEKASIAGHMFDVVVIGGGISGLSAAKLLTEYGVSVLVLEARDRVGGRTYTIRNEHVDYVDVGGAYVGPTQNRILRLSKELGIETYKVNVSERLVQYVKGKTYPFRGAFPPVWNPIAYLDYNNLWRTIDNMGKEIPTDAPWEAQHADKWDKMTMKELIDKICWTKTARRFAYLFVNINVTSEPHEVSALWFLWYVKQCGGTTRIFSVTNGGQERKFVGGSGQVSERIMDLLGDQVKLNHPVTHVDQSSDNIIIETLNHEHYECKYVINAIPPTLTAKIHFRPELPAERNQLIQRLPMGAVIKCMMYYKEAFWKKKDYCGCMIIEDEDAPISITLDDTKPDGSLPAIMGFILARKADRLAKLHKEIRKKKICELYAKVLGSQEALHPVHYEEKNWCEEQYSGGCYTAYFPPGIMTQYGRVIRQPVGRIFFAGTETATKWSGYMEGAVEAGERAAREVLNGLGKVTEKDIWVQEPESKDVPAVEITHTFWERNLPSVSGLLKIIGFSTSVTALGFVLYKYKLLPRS

| Compound | MIC [1] | MIC [2] | MIC [3] | MIC [4] | MIC [5] | MIC [6] | MIC [7] | MIC [8] | MIC [9] | Ki [10] |
| --- | --- | --- | --- | --- | --- | --- | --- | --- | --- | --- |
| COc1ccc(C2CC(c3ccccc3)=NN2C(=O)NNS(=O)(=O)c2ccc(F)cc2F)cc1 (stereo not drawn) | 25 µg/mL (≈ 51.4 µM) | 25 µg/mL (≈ 51.4 µM) | 25 µg/mL (≈ 51.4 µM) | 25 µg/mL (≈ 51.4 µM) | 25 µg/mL (≈ 51.4 µM) | 25 µg/mL (≈ 51.4 µM) | 25 µg/mL (≈ 51.4 µM) | 25 µg/mL (≈ 51.4 µM) | 0.8 µg/mL (≈ 1.64 µM) |  |
| CSc1ccc(C2CC(c3ccccc3)=NN2C(=O)NNS(=O)(=O)c2ccccc2)cc1 (stereo not drawn) | 25 µg/mL (≈ 53.6 µM) | 25 µg/mL (≈ 53.6 µM) | 25 µg/mL (≈ 53.6 µM) | 25 µg/mL (≈ 53.6 µM) | 25 µg/mL (≈ 53.6 µM) | 25 µg/mL (≈ 53.6 µM) | 25 µg/mL (≈ 53.6 µM) | 25 µg/mL (≈ 53.6 µM) | 0.8 µg/mL (≈ 1.71 µM) |  |
| O=C(NNS(=O)(=O)c1ccc(F)cc1)N1N=C(c2ccccc2)CC1c1ccccc1 (stereo not drawn) | 25 µg/mL (≈ 57 µM) | 25 µg/mL (≈ 57 µM) | 25 µg/mL (≈ 57 µM) | 25 µg/mL (≈ 57 µM) | 25 µg/mL (≈ 57 µM) | 25 µg/mL (≈ 57 µM) | 25 µg/mL (≈ 57 µM) | 25 µg/mL (≈ 57 µM) | 0.8 µg/mL (≈ 1.82 µM) |  |
| Cc1ccc(C2CC(c3ccccc3)=NN2C(=O)NNS(=O)(=O)c2ccc(F)cc2)cc1 (stereo not drawn) | 25 µg/mL (≈ 55.2 µM) | 25 µg/mL (≈ 55.2 µM) | 25 µg/mL (≈ 55.2 µM) | 25 µg/mL (≈ 55.2 µM) | 25 µg/mL (≈ 55.2 µM) | 25 µg/mL (≈ 55.2 µM) | 25 µg/mL (≈ 55.2 µM) | 25 µg/mL (≈ 55.2 µM) | 0.8 µg/mL (≈ 1.77 µM) |  |
| O=C(NNS(=O)(=O)c1ccc(F)cc1)N1N=C(c2ccccc2)CC1c1ccc(F)cc1 (stereo not drawn) | 25 µg/mL (≈ 54.8 µM) | 25 µg/mL (≈ 54.8 µM) | 25 µg/mL (≈ 54.8 µM) | 25 µg/mL (≈ 54.8 µM) | 25 µg/mL (≈ 54.8 µM) | 25 µg/mL (≈ 54.8 µM) | 25 µg/mL (≈ 54.8 µM) | 25 µg/mL (≈ 54.8 µM) | 0.8 µg/mL (≈ 1.75 µM) |  |
| O=C(NNS(=O)(=O)c1ccc(F)cc1)N1N=C(c2ccc(F)cc2)CC1c1ccc(F)cc1 (stereo not drawn) | 25 µg/mL (≈ 52.7 µM) | 25 µg/mL (≈ 52.7 µM) | 25 µg/mL (≈ 52.7 µM) | 25 µg/mL (≈ 52.7 µM) | 25 µg/mL (≈ 52.7 µM) | 25 µg/mL (≈ 52.7 µM) | 25 µg/mL (≈ 52.7 µM) | 25 µg/mL (≈ 52.7 µM) | 0.8 µg/mL (≈ 1.69 µM) |  |
| O=C(NNS(=O)(=O)c1ccc(F)cc1F)N1N=C(c2ccccc2)CC1c1ccccc1 (stereo not drawn) | 25 µg/mL (≈ 54.8 µM) | 25 µg/mL (≈ 54.8 µM) | 25 µg/mL (≈ 54.8 µM) | 25 µg/mL (≈ 54.8 µM) | 25 µg/mL (≈ 54.8 µM) | 25 µg/mL (≈ 54.8 µM) | 25 µg/mL (≈ 54.8 µM) | 25 µg/mL (≈ 54.8 µM) | 0.8 µg/mL (≈ 1.75 µM) |  |
| Cc1ccc(C2CC(c3ccccc3)=NN2C(=O)NNS(=O)(=O)c2ccc(F)cc2F)cc1 (stereo not drawn) | 25 µg/mL (≈ 53.1 µM) | 25 µg/mL (≈ 53.1 µM) | 25 µg/mL (≈ 53.1 µM) | 25 µg/mL (≈ 53.1 µM) | 25 µg/mL (≈ 53.1 µM) | 25 µg/mL (≈ 53.1 µM) | 25 µg/mL (≈ 53.1 µM) | 25 µg/mL (≈ 53.1 µM) | 0.8 µg/mL (≈ 1.7 µM) |  |
| O=C(NNS(=O)(=O)c1ccc(F)cc1F)N1N=C(c2ccccc2)CC1c1ccc(Br)cc1 (stereo not drawn) | 25 µg/mL (≈ 46.7 µM) | 25 µg/mL (≈ 46.7 µM) | 25 µg/mL (≈ 46.7 µM) | 25 µg/mL (≈ 46.7 µM) | 25 µg/mL (≈ 46.7 µM) | 25 µg/mL (≈ 46.7 µM) | 25 µg/mL (≈ 46.7 µM) | 25 µg/mL (≈ 46.7 µM) | 0.8 µg/mL (≈ 1.49 µM) |  |
| Cc1ccc(C2=NN(C(=S)Nc3ccccc3)C(c3ccc(F)cc3)C2)cc1 (stereo not drawn) |  |  |  |  |  |  |  |  |  | 0.1 nM |
| O=C(NNS(=O)(=O)c1ccc(F)cc1)N1N=C(c2ccccc2)CC1c1ccc(Cl)cc1 (stereo not drawn) | 25 µg/mL (≈ 52.9 µM) | 25 µg/mL (≈ 52.9 µM) | 25 µg/mL (≈ 52.9 µM) | 25 µg/mL (≈ 52.9 µM) | 25 µg/mL (≈ 52.9 µM) | 25 µg/mL (≈ 52.9 µM) | 25 µg/mL (≈ 52.9 µM) | 25 µg/mL (≈ 52.9 µM) | 0.8 µg/mL (≈ 1.69 µM) |  |
| O=C(NNS(=O)(=O)c1ccccc1)N1N=C(c2ccccc2)CC1c1ccc(Br)cc1 (stereo not drawn) | 25 µg/mL (≈ 50.1 µM) | 25 µg/mL (≈ 50.1 µM) | 25 µg/mL (≈ 50.1 µM) | 25 µg/mL (≈ 50.1 µM) | 25 µg/mL (≈ 50.1 µM) | 25 µg/mL (≈ 50.1 µM) | 25 µg/mL (≈ 50.1 µM) | 25 µg/mL (≈ 50.1 µM) | 0.8 µg/mL (≈ 1.6 µM) |  |
| O=C(NNS(=O)(=O)c1ccccc1)N1N=C(c2ccccc2)CC1c1ccc(Cl)cc1 (stereo not drawn) | 25 µg/mL (≈ 55 µM) | 25 µg/mL (≈ 55 µM) | 25 µg/mL (≈ 55 µM) | 25 µg/mL (≈ 55 µM) | 25 µg/mL (≈ 55 µM) | 25 µg/mL (≈ 55 µM) | 25 µg/mL (≈ 55 µM) | 25 µg/mL (≈ 55 µM) | 1.6 µg/mL (≈ 3.52 µM) |  |
| COc1ccc(C2CC(c3ccccc3)=NN2C(=O)NNS(=O)(=O)c2ccc(F)cc2)cc1 (stereo not drawn) | 25 µg/mL (≈ 53.4 µM) | 25 µg/mL (≈ 53.4 µM) | 25 µg/mL (≈ 53.4 µM) | 25 µg/mL (≈ 53.4 µM) | 25 µg/mL (≈ 53.4 µM) | 25 µg/mL (≈ 53.4 µM) | 25 µg/mL (≈ 53.4 µM) | 25 µg/mL (≈ 53.4 µM) | 0.8 µg/mL (≈ 1.71 µM) |  |
